The values below are quoted from earlier work in patent US20250258260A1, “MEGLUMINE BASED FORMULATIONS FOR DYNAMIC NUCLEAR POLARIZATION” (THE BOARD OF REGENTS OF THE UNIVERSITY OF TEXAS SYSTEM, priority 2024, published 2025).

Values after ≈ are worked out from the molar mass of the structure shown. Like-named read-outs stand apart in the source and are kept apart here.

The subject of one data set is muscle function. Conditions: 18 mM in drinking water for at least 30 days.
For data set [1] the following is noted: at 11.7 T using water as solvent.

`O=C(O)/C=C/C(=O)O` [fumaric acid]: the solubility in water (at 25° C.) is 6000 µg/mL (≈ 51.7 mM).
Turning to `CNC[C@H](O)[C@@H](O)[C@H](O)[C@H](O)CO` [meglumine], the solubility in water entry is “up to 1 g/mL”. Besides, the effect of supplementation entry in the data set on muscle function is on record as “favorable effect on muscle function”.
`O=[13C](O)/C=C/[13C](=O)O` [[1,4-^13C2]fumarate]: the T1 in data set [1] is on record as 29 s.
